From US10399992B2, “Process for preparing AD-35” (Zhejiang Hisun Pharmaceutical Co., Ltd., priority 2016, dated 2019)

Legend:
acetylcholinesterase = acetylcholinesterase (Homo sapiens, UniProt P22303); assay: inhibiting acetylcholinesterase in vitro; type: biochemical; details: compared with donepezil
Morris water maze test = type: in vivo; details: compared with donepezil
TNF-α = assay: rat model of Alzheimer's disease induced by Aβ25-35: TNF-α production and release; type: in vivo
IL-1β = assay: rat model of Alzheimer's disease induced by Aβ25-35: IL-1β production and release; type: in vivo
nerve cells = assay: rat model of Alzheimer's disease induced by Aβ25-35: toxicity of Aβ25-35 to nerve cells; type: in vivo
[1] = chelation of transition metal ions in vitro; type: physicochemical
[2] = Phase 1 Clinical Single Ascending Dose study (SAD); type: in vivo; details: subjects; 90 mg in a single dose
[3] = acute toxicity test in mice; details: compared with donepezil

acetylcholinesterase, sequence (P22303 32-614): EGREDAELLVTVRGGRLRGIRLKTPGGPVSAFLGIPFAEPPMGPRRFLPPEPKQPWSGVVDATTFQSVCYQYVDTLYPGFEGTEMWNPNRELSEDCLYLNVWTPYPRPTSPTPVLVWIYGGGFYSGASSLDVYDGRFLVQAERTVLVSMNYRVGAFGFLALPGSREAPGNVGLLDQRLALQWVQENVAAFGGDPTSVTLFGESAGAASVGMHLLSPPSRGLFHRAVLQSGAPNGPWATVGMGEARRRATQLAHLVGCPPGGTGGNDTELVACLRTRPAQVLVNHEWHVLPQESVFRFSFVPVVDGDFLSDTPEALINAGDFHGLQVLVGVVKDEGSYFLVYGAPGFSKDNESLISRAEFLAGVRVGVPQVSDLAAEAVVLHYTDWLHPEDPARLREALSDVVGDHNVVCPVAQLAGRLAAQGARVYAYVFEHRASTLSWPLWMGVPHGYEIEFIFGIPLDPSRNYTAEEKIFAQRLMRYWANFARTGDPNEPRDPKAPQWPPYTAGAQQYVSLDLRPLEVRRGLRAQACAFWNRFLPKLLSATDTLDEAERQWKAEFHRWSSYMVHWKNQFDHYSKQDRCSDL

Compound: O=C1c2cc3c(cc2C2(CC2)N1CCC1CCN(Cc2ccccn2)CC1)OCO3 [AD-35, 6-[2-[1-(2-pyridylmethyl)-4-piperidinyl]ethyl]spiro[[1,3]dioxolo[4,5-f]isoindole-7,1′-cyclopropane]-5-one phosphate]
- activity of inhibiting acetylcholinesterase in vitro relative to donepezil (acetylcholinesterase): about one-tenth of the activity of donepezil
- efficacy in the Morris water maze test (improving memory and learning ability) (Morris water maze test): comparable efficacy to that of donepezil
- production and release of pro-inflammatory cytokine TNF-α (TNF-α): significantly inhibit
- production and release of pro-inflammatory cytokine IL-1β (IL-1β): significantly inhibit
- toxicity of Aβ25-35 to nerve cells (nerve cells): greatly reduces the toxicity of Aβ25-35 to nerve cells
- ability to chelate transition metal ions such as Cu^2+ [1]: exhibits a certain ability to chelate transition metal ions
- adverse reactions [2]: did not develop adverse reactions
- acute toxicity [3]: much less toxic than donepezil
